# Test results published in patent US8933103B2, “Pyridone derivatives” (Daiichi Sankyo Company, Limited, priority 2012, dated 2015).
# pIC50: −log10 of the molar value.
# Biological target: T1, phosphorylated Axl (pAxl Y702) in NCI-H1299 cells (Homo sapiens, UniProt P30530)
# T1 construct: endogenous in cells; host or cells: NCI-H1299
# T1 sequence (P30530 26-894): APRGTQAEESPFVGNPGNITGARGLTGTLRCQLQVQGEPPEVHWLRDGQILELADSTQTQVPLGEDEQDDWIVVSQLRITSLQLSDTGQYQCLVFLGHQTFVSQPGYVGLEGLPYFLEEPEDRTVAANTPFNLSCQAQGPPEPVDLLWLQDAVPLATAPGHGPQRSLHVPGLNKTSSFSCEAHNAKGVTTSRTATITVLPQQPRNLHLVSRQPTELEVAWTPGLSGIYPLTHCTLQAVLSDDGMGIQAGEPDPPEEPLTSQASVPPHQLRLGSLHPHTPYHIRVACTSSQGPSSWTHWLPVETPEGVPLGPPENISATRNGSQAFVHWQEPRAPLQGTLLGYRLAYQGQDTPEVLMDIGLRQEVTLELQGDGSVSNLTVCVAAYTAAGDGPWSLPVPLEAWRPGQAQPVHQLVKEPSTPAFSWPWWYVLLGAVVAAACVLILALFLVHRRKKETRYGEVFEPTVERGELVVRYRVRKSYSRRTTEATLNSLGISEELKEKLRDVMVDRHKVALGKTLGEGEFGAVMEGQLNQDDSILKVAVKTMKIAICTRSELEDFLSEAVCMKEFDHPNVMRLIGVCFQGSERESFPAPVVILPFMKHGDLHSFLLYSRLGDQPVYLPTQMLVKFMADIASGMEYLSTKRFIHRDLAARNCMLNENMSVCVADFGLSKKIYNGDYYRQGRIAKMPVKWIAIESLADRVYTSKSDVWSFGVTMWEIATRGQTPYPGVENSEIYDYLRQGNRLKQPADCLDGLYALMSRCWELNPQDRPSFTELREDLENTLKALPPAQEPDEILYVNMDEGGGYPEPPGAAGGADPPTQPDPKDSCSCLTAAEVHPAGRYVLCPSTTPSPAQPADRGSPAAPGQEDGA
# Experiment: Intracellular Axl Phosphorylation Inhibitory Activity (pAxl, NCI-H1299 cells)
# Type: cell-based
# Conditions: 1 h compound incubation, GAS6 stimulation 10 minutes, pAxl (Y702) level
# Experimental: A phosphorylated Axl (hereinafter pAxl) inhibitory test was performed using the human non-small-cell lung cancer-derived cell strain NCI-H1299.
# On the following day, the medium was removed, 100 μl of fresh medium were added, and the cells were cultured at 37° C. in the presence of 5% CO2 for one day.
# The test compound was dissolved in DMSO and diluted with medium to prepare a sample solution (DMSO concentration: 2%). Twenty-five microliters of medium or sample-added medium was added to each well (DMSO concentration: 0.4%), and the plate was incubated at 37° C. in the presence of 5% CO2 for one hour.
# After stirring, the plate was incubated at 37° C. in the presence of 5% CO2 for 10 minutes.
# The supernatant was discarded, and 0.1 ml of a 37% formalin solution diluted to 4% with phosphate buffer (PBS) (hereinafter “4% formalin solution”) was added to each well. The plate was allowed to stand at room temperature for 10 minutes.
# Next, the 4% formalin solution was discarded, and 0.2 ml of a solution of Triton X-100 diluted to 0.1% with PBS (hereinafter “wash buffer”) was added. The wash buffer was discarded using a decanter, and excess moisture in the plate was removed on a paper towel.
# Subsequently, […] NaN3 and H2O2 were added to the wash buffer at 0.1% (hereinafter “quenching buffer”), and 0.1 ml of the quenching buffer was added to each well. The plate was allowed to stand at room temperature for 15 minutes.
# The quenching buffer was discarded, and 0.2 ml of wash buffer was added. The wash buffer was discarded using a decanter, and excess moisture in the plate was removed on a paper towel.
# Skim milk (Nacalai Tesque) was added to the wash buffer at a final concentration of 5% (hereinafter “blocking buffer”), and 0.25 ml of the blocking buffer was added to each well. The plate was allowed to stand at room temperature for one hour.
# After light stirring, the plate was incubated for 20 minutes. Luminescence was then measured by ARVO sx (PerkinElmer), and the pAxl (Y702) level was measured.
# pAxl Inhibitory activity was determined by the following formula. Inhibition %=100−(A−B)×100/(T−B)
# A: Measurement of the test compound
# T: Luminescence value of the reaction solution with a compound not added
row,pIC50,SMILES
1,6.30 to 7.00,"Nc1ncc(-c2ccccc2)cc1-c1ccc(NC(=O)c2cn(CC(F)(F)F)cc(-c3ccc(F)cc3)c2=O)cc1 [Example 31, N-[4-(2-Amino-5-phenylpyridin-3-yl)phenyl]-5-(4-fluorophenyl)-4-oxo-1-(2,2,2-trifluoroethyl)-1,4-dihydropyridine-3-carboxamide]"
2,6.30 to 7.00,"COc1ccc(-c2cnc(N)c(-c3ccc(NC(=O)c4cn(CC(F)(F)F)cc(-c5ccc(F)cc5)c4=O)cc3)c2)cc1 [Example 32, N-{4-[2-Amino-5-(4-methoxyphenyl)pyridin-3-yl]phenyl}-5-(4-fluorophenyl)-4-oxo-1-(2,2,2-trifluoroethyl)-1,4-dihydropyridine-3-carboxamide]"
3,7.00 to 7.30,"COc1ccc(-c2cnc(N)c(-c3ccc(NC(=O)c4c[nH]cc(-c5ccc(F)cc5)c4=O)cc3)c2)cc1OC [Example 1, N-{4-[2-Amino-5-(3,4-dimethoxyphenyl)pyridin-3-yl]phenyl}-5-(4-fluorophenyl)-4-oxo-1,4-dihydropyridine-3-carboxamide]"

# Biological target: T2, AXL (fusion protein of amino acids 464-885 of the intracellular domain of human AXL with glutathione transferase) (Homo sapiens, UniProt P30530)
# T2 sequence (P30530 464-885 isoform P30530-2): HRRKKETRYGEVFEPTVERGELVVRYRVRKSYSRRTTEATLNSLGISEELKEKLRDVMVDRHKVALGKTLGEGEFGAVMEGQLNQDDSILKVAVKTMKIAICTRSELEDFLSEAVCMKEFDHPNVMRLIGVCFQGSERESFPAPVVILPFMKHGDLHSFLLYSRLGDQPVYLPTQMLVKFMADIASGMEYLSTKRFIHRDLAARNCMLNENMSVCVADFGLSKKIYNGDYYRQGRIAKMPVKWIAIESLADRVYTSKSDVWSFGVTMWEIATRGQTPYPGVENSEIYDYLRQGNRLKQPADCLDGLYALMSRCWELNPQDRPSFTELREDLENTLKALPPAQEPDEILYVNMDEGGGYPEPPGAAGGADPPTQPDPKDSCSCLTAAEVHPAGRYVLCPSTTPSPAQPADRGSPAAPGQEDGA
# Experiment: Cell-Free Axl Kinase Inhibitory Activity
# Conditions: not given
row,SMILES,pIC50
1,"COc1ccc(-c2cnc(N)c(-c3ccc(NC(=O)c4cn(CC(F)(F)F)cc(-c5ccc(F)cc5)c4=O)cc3)c2)cc1 [Example 32, N-{4-[2-Amino-5-(4-methoxyphenyl)pyridin-3-yl]phenyl}-5-(4-fluorophenyl)-4-oxo-1-(2,2,2-trifluoroethyl)-1,4-dihydropyridine-3-carboxamide]",7.70 to 8.00
2,"Nc1ncc(-c2cnn(C[C@H]3COCCO3)c2)cc1-c1ccc(NC(=O)c2cn(Cc3ccc(F)cc3)cc(C(=O)N3CCC(F)(F)C3)c2=O)cc1 [Example 73, N-[4-(2-Amino-5-{1-[(2S)-1,4-dioxan-2-ylmethyl]-1H-pyrazol-4-yl}pyridin-3-yl)phenyl]-5-[(3,3-difluoropyrrolidin-1-yl)carbonyl]-1-(4-fluorobenzyl)-4-oxo-1,4-dihydropyridine-3-carboxamide]",7.70 to 8.00
3,"Cc1cn(Cc2ccc(F)cc2)cc(C(=O)Nc2ccc(-c3cc(-c4cnn(C)c4)cnc3N)cc2)c1=O [Example 58, N-{4-[2-Amino-5-(1-methyl-1H-pyrazol-4-yl)pyridin-3-yl]phenyl}-1-(4-fluorobenzyl)-5-methyl-4-oxo-1,4-dihydropyridine-3-carboxamide]",8.00 to 9.00
4,"COc1ccc(-c2cnc(N)c(-c3ccc(NC(=O)c4cn(C)cc(-c5ccc(F)cc5)c4=O)cc3)c2)cc1OC [Example 2, N-{4-[2-Amino-5-(3,4-dimethoxyphenyl)pyridin-3-yl]phenyl}-5-(4-fluorophenyl)-1-methyl-4-oxo-1,4-dihydropyridine-3-carboxamide]",8.00 to 9.00
5,"CC(O)Cn1cc(-c2cnc(N)c(-c3ccc(NC(=O)c4cn(CCF)cc(-c5ccc(F)cc5)c4=O)cc3)c2)cn1 (racemic) [Example 63, N-(4-{2-Amino-5-[1-(2-hydroxypropyl)-1H-pyrazol-4-yl]pyridin-3-yl}phenyl)-1-(2-fluoroethyl)-5-(4-fluorophenyl)-4-oxo-1,4-dihydropyridine-3-carboxamide]",8.00 to 9.00
6,"Cc1cc(=O)c(C(=O)Nc2ccc(-c3cc(-c4cnn(C)c4)cnc3N)cc2)cn1Cc1ccc(F)cc1 [Example 57, N-{4-[2-Amino-5-(1-methyl-1H-pyrazol-4-yl)pyridin-3-yl]phenyl}-1-(4-fluorobenzyl)-6-methyl-4-oxo-1,4-dihydropyridine-3-carboxamide]",8.00 to 9.00
7,"COc1cc(-c2cnc(N)c(-c3ccc(NC(=O)c4cn(CCF)cc(-c5ccc(F)cc5)c4=O)cc3)c2)ccc1OC[C@H]1COCCO1 [Example 43, N-[4-(2-Amino-5-{4-[(2R)-1,4-dioxan-2-ylmethoxy]-3-methoxyphenyl}pyridin-3-yl)phenyl]-1-(2-fluoroethyl)-5-(4-fluorophenyl)-4-oxo-1,4-dihydropyridine-3-carboxamide]",8.00 to 9.00
8,"COc1ccc(-c2cnc(N)c(-c3ccc(NC(=O)c4cn(CC(=O)N(C)C)cc(-c5ccc(F)cc5)c4=O)cc3)c2)cc1OC [Example 16, N-{4-[2-Amino-5-(3,4-dimethoxyphenyl)pyridin-3-yl]phenyl}-1-[2-(dimethylamino)-2-oxoethyl]-5-(4-fluorophenyl)-4-oxo-1,4-dihydropyridine-3-carboxamide]",8.00 to 9.00

# Results, then the compound that gave them:
row,pIC50,SMILES
1,8.00 to 9.00,"Nc1ncc(-c2ccccc2)cc1-c1ccc(NC(=O)c2cn(CC(F)(F)F)cc(-c3ccc(F)cc3)c2=O)cc1 [Example 31, N-[4-(2-Amino-5-phenylpyridin-3-yl)phenyl]-5-(4-fluorophenyl)-4-oxo-1-(2,2,2-trifluoroethyl)-1,4-dihydropyridine-3-carboxamide]"
2,8.00 to 9.00,"COc1ccc(-c2cnc(N)c(-c3ccc(NC(=O)c4c[nH]cc(-c5ccc(F)cc5)c4=O)cc3)c2)cc1OC [Example 1, N-{4-[2-Amino-5-(3,4-dimethoxyphenyl)pyridin-3-yl]phenyl}-5-(4-fluorophenyl)-4-oxo-1,4-dihydropyridine-3-carboxamide]"
3,9.00 to 10.00,"COc1ccc(-c2cnc(N)c(-c3ccc(NC(=O)c4cn(Cc5ccncc5)cc(-c5ccc(F)cc5)c4=O)cc3)c2)cc1OC [Example 13, N-{4-[2-Amino-5-(3,4-dimethoxyphenyl)pyridin-3-yl]phenyl}-5-(4-fluorophenyl)-4-oxo-1-(pyridin-4-ylmethyl)-1,4-dihydropyridine-3-carboxamide]"
4,9.00 to 10.00,"CNC(=O)Cn1cc(C(=O)Nc2ccc(-c3cc(-c4ccc(OC)c(OC)c4)cnc3N)cc2)c(=O)c(-c2ccc(F)cc2)c1 [Example 15, N-{4-[2-Amino-5-(3,4-dimethoxyphenyl)pyridin-3-yl]phenyl}-5-(4-fluorophenyl)-1-[2-(methylamino)-2-oxoethyl]-4-oxo-1,4-dihydropyridine-3-carboxamide]"
5,9.00 to 10.00,"Nc1ncc(-c2cnn(C3CCNCC3)c2)cc1-c1ccc(NC(=O)c2cn(CCF)cc(-c3ccc(F)cc3)c2=O)cc1 [Example 62, N-{4-[2-Amino-5-(1-piperidin-4-yl-1H-pyrazol-4-yl)pyridin-3-yl]phenyl}-1-(2-fluoroethyl)-5-(4-fluorophenyl)-4-oxo-1,4-dihydropyridine-3-carboxamide]"
6,9.00 to 10.00,"Cn1cc(-c2cnc(N)c(-c3ccc(NC(=O)c4cn(CC(F)(F)F)cc(-c5ccc(F)cc5)c4=O)cc3)c2)cn1 [Example 50, N-{4-[2-Amino-5-(1-methyl-1H-pyrazol-4-yl)pyridin-3-yl]phenyl}-5-(4-fluorophenyl)-4-oxo-1-(2,2,2-trifluoroethyl)-1,4-dihydropyridine-3-carboxamide]"
7,9.00 to 10.00,"COc1ccc(-c2cnc(N)c(-c3ccc(NC(=O)c4cn(CC(F)(F)F)cc(-c5ccc(F)cc5)c4=O)cc3F)c2)cc1OC [Example 29, N-{4-[2-Amino-5-(3,4-dimethoxyphenyl)pyridin-3-yl]-3-fluorophenyl}-5-(4-fluorophenyl)-4-oxo-1-(2,2,2-trifluoroethyl)-1,4-dihydropyridine-3-carboxamide]"
8,9.00 to 10.00,"Nc1ncc(-c2cnn(C[C@H]3COCCO3)c2)cc1-c1ccc(NC(=O)c2cn(Cc3ccc(F)cc3)cc(C(=O)N3CCCC3)c2=O)cc1 [Example 71, N-[4-(2-Amino-5-{1-[(2S)-1,4-dioxan-2-ylmethyl]-1H-pyrazol-4-yl}pyridin-3-yl)phenyl]-1-(4-fluorobenzyl)-4-oxo-5-(pyrrolidin-1-ylcarbonyl)-1,4-dihydropyridine-3-carboxamide]"
9,9.00 to 10.00,"COc1ccc(-c2cnc(N)c(-c3ccc(NC(=O)c4cn(CC(F)(F)F)cc(-c5ccc(C)cc5)c4=O)cc3)c2)cc1OC [Example 24, N-{4-[2-Amino-5-(3,4-dimethoxyphenyl)pyridin-3-yl]phenyl}-5-(4-methylphenyl)-4-oxo-1-(2,2,2-trifluoroethyl)-1,4-dihydropyridine-3-carboxamide]"
